Reference: US20240018145A1, “[…]-DEPENDENT EN[…] TREATING OR […]” (priority 2020, published 2024)
Read-outs that look alike come from different tables or passages of the source.

System: FLU A (PR/8/34)
Test: Flu A Neuraminidase Antiviral Assay
Assay type: cell-based

Row | Compound | EC50 | EC50 (MDCK, 48 h)
1 | CN1C(=O)c2c(O)c(=O)ccn2N2C1CCC1(CCC(C(F)(F)F)CC1)C2c1ccccc1 (single isomer, unassigned) [Compound 73A, 7′-hydroxy-5′-methyl-1′-phenyl-4-(trifluoromethyl)-3′,4′,4a′,5′-tetrahydro-1′H-spiro[cyclohexane-1,2′-dipyrido[1,2-b:2′,1′-f][1,2,4]triazine]-6′,8′-dione] | > 810 nM | –
2 | CCCC1CCC2N(C)C(=O)c3c(O)c(=O)ccn3N2C1c1ccccc1Cl (stereo not drawn) [Compound 65A, 1-(2-chlorophenyl)-7-hydroxy-5-methyl-2-propyl-1,2,3,4,4a,5-hexahydrodipyrido[1,2-b:2′,1′-f][1,2,4]triazine-6,8-dione] | 396 nM | –
3 | CN1C(=O)c2c(O)c(=O)ccn2N2C1CCC2(C)c1ccccc1Cl (single isomer, unassigned) [Compound 63B, 1-(2-chlorophenyl)-6-hydroxy-1,4-dimethyl-2,3,3a,4-tetrahydro-1H-pyrido[2,1-f]pyrrolo[1,2-b][1,2,4]triazine-5,7-dione] | 160 nM | –
4 | CC1(c2ccccc2)CCCC2N(CC3CC(F)(F)C3)C(=O)c3c(O)c(=O)ccn3N21 (single isomer, unassigned) [Compound 45B, 5-((3,3-difluorocyclobutyl)methyl)-7-hydroxy-1-methyl-1-phenyl-1,2,3,4,4a,5-hexahydrodipyrido[1,2-b:2′,1′-f][1,2,4]triazine-6,8-dione] | 10.6 nM | –
5 | CN1C(=O)c2c(O)c(=O)ccn2N2C1CCCC2(C)c1ccncc1 (single isomer, unassigned) [Compound 31B, 7-hydroxy-1,5-dimethyl-1-(pyridin-4-yl)-1,2,3,4,4a,5-hexahydrodipyrido[1,2-b:2′,1′-f][1,2,4]triazine-6,8-dione] | > 8100 nM | –
6 | CN1C(=O)c2c(O)c(=O)ccn2N2C1CCC2(C)c1ccccc1 (single isomer, unassigned) [Compound 61A, 6-hydroxy-1,4-dimethyl-1-phenyl-2,3,3a,4-tetrahydro-1H-pyrido[2,1-f]pyrrolo[1,2-b][1,2,4]triazine-5,7-dione] | 122 nM | –
7 | CC1CCC2N(C)C(=O)c3c(O)c(=O)ccn3N2C1(C)c1ccccc1 (single isomer, unassigned) [Compound 29B, 7-hydroxy-1,2,5-trimethyl-1-phenyl-1,2,3,4,4a,5-hexahydrodipyrido[1,2-b:2′,1′-f][1,2,4]triazine-6,8-dione] | 286 nM | –
8 | CN1C(=O)c2c(O)c(=O)ccn2N2C(c3ccccc3)C(C3(C(F)(F)F)CC3)CCC12 (single isomer, unassigned) [Compound 108A, 7-hydroxy-5-methyl-1-phenyl-2-(1-(trifluoromethyl)cyclopropyl)-1,2,3,4,4a,5-hexahydrodipyrido[1,2-b:2′,1′-f][1,2,4]triazine-6,8-dione] | 5420 nM | –
9 | C=CCC1CCC2N(C)C(=O)c3c(O)c(=O)ccn3N2C1c1ccccc1Cl (stereo not drawn) [Compound 64B, 2-allyl-1-(2-chlorophenyl)-7-hydroxy-5-methyl-1,2,3,4,4a,5-hexahydrodipyrido[1,2-b:2′,1′-f][1,2,4]triazine-6,8-dione] | 28.4 nM | –
10 | CN1C(=O)c2c(O)c(=O)ccn2N2[C@H](c3ccccc3)[C@H](OCCF)CC[C@@H]12 [Compound 162, (1R,2R,4aS)-2-(2-fluoroethoxy)-7-hydroxy-5-methyl-1-phenyl-1,2,3,4,4a,5-hexahydrodipyrido[1,2-b:2′,1′-f][1,2,4]triazine-6,8-dione] | – | 195 nM
11 | CCCC1CCC2N(C)C(=O)c3c(O)c(=O)ccn3N2C1c1ccccc1C (single isomer, unassigned) [Compound 92A, 7-hydroxy-5-methyl-2-propyl-1-(o-tolyl)-1,2,3,4,4a,5-hexahydrodipyrido[1,2-b:2′,1′-f][1,2,4]triazine-6,8-dione] | 4570 nM | –
12 | CN1C(=O)c2c(O)c(=O)ccn2N2C(c3ccccc3)C(CC(F)F)CCC12 (single isomer, unassigned) [Compound 129A, 2-(2,2-difluoroethyl)-7-hydroxy-5-methyl-1-phenyl-1,2,3,4,4a,5-hexahydrodipyrido[1,2-b:2′,1′-f][1,2,4]triazine-6,8-dione] | 2.3 nM | –
13 | CN1C(=O)c2c(O)c(=O)ccn2N2C(c3ccccc3)C(CC(C)(F)F)CCC12 (single isomer, unassigned) [Compound 126B, 2-(2,2-difluoropropyl)-7-hydroxy-5-methyl-1-phenyl-1,2,3,4,4a,5-hexahydrodipyrido[1,2-b:2′,1′-f][1,2,4]triazine-6,8-dione] | 16.1 nM | –
14 | CN1C(=O)c2c(O)c(=O)ccn2N2C1CCCC21CCc2ccccc21 (single isomer, unassigned) [Compound 21A, 7-hydroxy-5-methyl-2′,3,3′,4,4a,5-hexahydro-2H-spiro[dipyrido[1,2-b:2′,1′-f][1,2,4]triazine-1,1′-indene]-6,8-dione] | > 8100 nM | –
15 | CN1C(=O)c2c(O)c(=O)ccn2N2C1CCCC21CCc2ccccc21 (single isomer, unassigned) [Compound 21B, 7-hydroxy-5-methyl-2′,3,3′,4,4a,5-hexahydro-2H-spiro[dipyrido[1,2-b:2′,1′-f][1,2,4]triazine-1,1′-indene]-6,8-dione] | 2.6 nM | –
16 | Cc1ccnc(C2(C)CCCC3N(CC(F)(F)F)C(=O)c4c(O)c(=O)ccn4N32)c1 (single isomer, unassigned) [Compound 50A, 7-hydroxy-1-methyl-1-(4-methylpyridin-2-yl)-5-(2,2,2-trifluoroethyl)-1,2,3,4,4a,5-hexahydrodipyrido[1,2-b:2′,1′-f][1,2,4]triazine-6,8-dione] | > 8100 nM | –
17 | CN1C(=O)c2c(O)c(=O)ccn2N2C1CC[C@H](OCC=C(F)F)[C@@]2(C)c1ccccc1 (stereo partly drawn) [Compound 151] | – | > 810 nM
18 | CC1(c2ccccc2)CCCC2N(CC3CC3)C(=O)c3c(O)c(=O)ccn3N21 (single isomer, unassigned) [Compound 37B, 5-(cyclopropylmethyl)-7-hydroxy-1-methyl-1-phenyl-1,2,3,4,4a,5-hexahydrodipyrido[1,2-b:2′,1′-f][1,2,4]triazine-6,8-dione] | 1240 nM | –
19 | CC1(c2ccccn2)CCCC2N(CC(F)(F)F)C(=O)c3c(O)c(=O)ccn3N21 (single isomer, unassigned) [Compound 39B, 7-hydroxy-1-methyl-1-(pyridin-2-yl)-5-(2,2,2-trifluoroethyl)-1,2,3,4,4a,5-hexahydrodipyrido[1,2-b:2′,1′-f][1,2,4]triazine-6,8-dione] | 10.1 nM | –
20 | O=C1c2c(O)c(=O)ccn2N2C(c3ccccc3)CCCC2N1CC1CC1 (single isomer, unassigned) [Compound 56C, 5-(cyclopropylmethyl)-7-hydroxy-1-phenyl-1,2,3,4,4a,5-hexahydrodipyrido[1,2-b:2′,1′-f][1,2,4]triazine-6,8-dione] | > 8100 nM | –
21 | Cc1cccnc1C1(C)CCCC2N(CC(F)(F)F)C(=O)c3c(O)c(=O)ccn3N21 (single isomer, unassigned) [Compound 44B, 7-hydroxy-1-methyl-1-(3-methylpyridin-2-yl)-5-(2,2,2-trifluoroethyl)-1,2,3,4,4a,5-hexahydrodipyrido[1,2-b:2′,1′-f][1,2,4]triazine-6,8-dione] | 15.2 nM | –
22 | Cc1cccc(C2(C)CCCC3N(CC(F)F)C(=O)c4c(O)c(=O)ccn4N32)n1 (single isomer, unassigned) [Compound 54A, 5-(2,2-difluoroethyl)-7-hydroxy-1-methyl-1-(6-methylpyridin-2-yl)-1,2,3,4,4a,5-hexahydrodipyrido[1,2-b:2′,1′-f][1,2,4]triazine-6,8-dione] | > 810 nM | –
23 | CCN1C(=O)c2c(O)c(=O)ccn2N2C(c3ccccc3C)C(CCC(F)F)CCC12 (single isomer, unassigned) [Compound 102A, 2-(3,3-difluoropropyl)-5-ethyl-7-hydroxy-1-(o-tolyl)-1,2,3,4,4a,5-hexahydrodipyrido[1,2-b:2′,1′-f][1,2,4]triazine-6,8-dione] | 2.9 nM | –
24 | CN1C(=O)c2c(O)c(=O)ccn2N2C(c3ccccc3F)CCCC12 (single isomer, unassigned) [Compound 8B, 1-(2-fluorophenyl)-7-hydroxy-5-methyl-1,2,3,4,4a,5-hexahydrodipyrido[1,2-b:2′,1′-f][1,2,4]triazine-6,8-dione] | 65.6 nM | –
25 | CN1C(=O)c2c(O)c(=O)ccn2N2C(c3ccc(Cl)c(F)c3)CCCC12 (single isomer, unassigned) [Compound 3A, 1-(4-chloro-3-fluorophenyl)-7-hydroxy-5-methyl-1,2,3,4,4a,5-hexahydrodipyrido[1,2-b:2′,1′-f][1,2,4]triazine-6,8-dione] | 1020 nM | –
26 | Cc1ccccc1C1C(CCC(F)(F)F)CCC2N(C)C(=O)c3c(O)c(=O)ccn3N12 (single isomer, unassigned) [Compound 95A, 7-hydroxy-5-methyl-1-(o-tolyl)-2-(3,3,3-trifluoropropyl)-1,2,3,4,4a,5-hexahydrodipyrido[1,2-b:2′,1′-f][1,2,4]triazine-6,8-dione] | 137 nM | –
27 | CN1C(=O)c2c(O)c(=O)ccn2N2C(c3ccccc3)C(Cc3ccccc3)CCC12 (single isomer, unassigned) [Compound 117B, 2-benzyl-7-hydroxy-5-methyl-1-phenyl-1,2,3,4,4a,5-hexahydrodipyrido[1,2-b:2′,1′-f][1,2,4]triazine-6,8-dione] | 113 nM | –
28 | COc1ccccc1C1C(CC(F)(F)F)CCC2N(C)C(=O)c3c(O)c(=O)ccn3N12 (single isomer, unassigned) [Compound 125B, 7-hydroxy-1-(2-methoxyphenyl)-5-methyl-2-(2,2,2-trifluoroethyl)-1,2,3,4,4a,5-hexahydrodipyrido[1,2-b:2′,1′-f][1,2,4]triazine-6,8-dione] | 2.5 nM | –
29 | CC1(c2nccs2)CCCC2N(CC(F)(F)F)C(=O)c3c(O)c(=O)ccn3N21 (single isomer, unassigned) [Compound 41A, 7-hydroxy-1-methyl-1-(thiazol-2-yl)-5-(2,2,2-trifluoroethyl)-1,2,3,4,4a,5-hexahydrodipyrido[1,2-b:2′,1′-f][1,2,4]triazine-6,8-dione] | > 8100 nM | –
30 | CCN1C(=O)c2c(O)c(=O)ccn2N2C(c3ccccc3)C(CC(F)(F)F)CCC12C (single isomer, unassigned) [Compound 82B, 5-ethyl-7-hydroxy-4a-methyl-1-phenyl-2-(2,2,2-trifluoroethyl)-1,2,3,4,4a,5-hexahydrodipyrido[1,2-b:2′,1′-f][1,2,4]triazine-6,8-dione] | 2.3 nM | –
